Test results reported in ChEMBL document CHEMBL4507268 (2021).

Key:
Conditions in all cases: Compound concentration 1.0 uM
[1] = molecular target: Insulin receptor (Homo sapiens) (UniProt P06213)
[2] = molecular target: T1, Dual specificity protein kinase TTK (Homo sapiens) (UniProt P33981)
T1 sequence (whole entry): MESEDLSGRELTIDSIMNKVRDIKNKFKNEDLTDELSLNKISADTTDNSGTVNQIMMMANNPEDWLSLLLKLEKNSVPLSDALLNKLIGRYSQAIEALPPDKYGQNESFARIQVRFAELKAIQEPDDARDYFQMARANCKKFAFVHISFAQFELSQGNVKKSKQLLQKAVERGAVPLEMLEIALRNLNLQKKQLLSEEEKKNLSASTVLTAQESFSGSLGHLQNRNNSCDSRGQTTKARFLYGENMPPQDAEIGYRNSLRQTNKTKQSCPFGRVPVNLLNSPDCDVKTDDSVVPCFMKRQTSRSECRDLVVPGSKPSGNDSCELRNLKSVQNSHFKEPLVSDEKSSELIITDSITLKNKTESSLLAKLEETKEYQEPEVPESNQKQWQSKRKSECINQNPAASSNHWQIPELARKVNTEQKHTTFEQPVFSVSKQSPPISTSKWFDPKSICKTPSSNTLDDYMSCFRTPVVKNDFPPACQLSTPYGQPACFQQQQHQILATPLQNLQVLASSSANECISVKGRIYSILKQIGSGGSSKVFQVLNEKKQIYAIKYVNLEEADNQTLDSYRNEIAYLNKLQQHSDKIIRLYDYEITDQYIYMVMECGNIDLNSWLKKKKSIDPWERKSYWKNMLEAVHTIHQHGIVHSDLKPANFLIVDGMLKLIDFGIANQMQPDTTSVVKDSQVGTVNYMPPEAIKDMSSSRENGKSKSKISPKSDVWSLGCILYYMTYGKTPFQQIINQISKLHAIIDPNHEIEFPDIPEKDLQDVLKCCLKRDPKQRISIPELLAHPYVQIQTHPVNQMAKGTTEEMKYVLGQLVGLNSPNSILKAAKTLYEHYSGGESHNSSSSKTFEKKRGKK

[3] = molecular target: Serine/threonine-protein kinase PLK2 (Homo sapiens) (UniProt Q9NYY3)
[4] = molecular target: Tau-tubulin kinase 2 (Homo sapiens) (UniProt Q6IQ55)
[5] = molecular target: T2, Beta-adrenergic receptor kinase 1 (Homo sapiens) (UniProt P25098)
T2 sequence (whole entry): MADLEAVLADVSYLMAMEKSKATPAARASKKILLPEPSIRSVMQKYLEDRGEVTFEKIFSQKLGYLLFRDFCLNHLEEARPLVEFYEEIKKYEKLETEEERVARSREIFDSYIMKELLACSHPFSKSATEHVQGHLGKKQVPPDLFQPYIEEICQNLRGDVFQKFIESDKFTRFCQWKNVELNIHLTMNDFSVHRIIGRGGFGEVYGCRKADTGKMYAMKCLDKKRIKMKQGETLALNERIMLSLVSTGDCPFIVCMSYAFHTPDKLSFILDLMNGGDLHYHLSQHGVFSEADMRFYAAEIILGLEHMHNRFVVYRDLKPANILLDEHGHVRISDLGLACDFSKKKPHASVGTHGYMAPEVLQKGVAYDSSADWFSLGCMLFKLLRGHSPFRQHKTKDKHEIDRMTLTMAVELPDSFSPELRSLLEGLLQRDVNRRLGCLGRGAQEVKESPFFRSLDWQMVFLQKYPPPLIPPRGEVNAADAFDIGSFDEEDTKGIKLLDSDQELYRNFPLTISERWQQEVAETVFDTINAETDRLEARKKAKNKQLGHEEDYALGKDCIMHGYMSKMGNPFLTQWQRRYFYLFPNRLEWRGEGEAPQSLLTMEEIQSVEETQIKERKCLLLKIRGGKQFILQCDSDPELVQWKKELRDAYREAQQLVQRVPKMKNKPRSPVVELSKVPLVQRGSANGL

[6] = molecular target: Serine/threonine-protein kinase 35 (Homo sapiens) (UniProt Q8TDR2)
[7] = molecular target: Epidermal growth factor receptor (Homo sapiens) (UniProt P00533)
[8] = molecular target: T3, Discoidin domain-containing receptor 2 (Homo sapiens) (UniProt Q16832)
T3 sequence (whole entry): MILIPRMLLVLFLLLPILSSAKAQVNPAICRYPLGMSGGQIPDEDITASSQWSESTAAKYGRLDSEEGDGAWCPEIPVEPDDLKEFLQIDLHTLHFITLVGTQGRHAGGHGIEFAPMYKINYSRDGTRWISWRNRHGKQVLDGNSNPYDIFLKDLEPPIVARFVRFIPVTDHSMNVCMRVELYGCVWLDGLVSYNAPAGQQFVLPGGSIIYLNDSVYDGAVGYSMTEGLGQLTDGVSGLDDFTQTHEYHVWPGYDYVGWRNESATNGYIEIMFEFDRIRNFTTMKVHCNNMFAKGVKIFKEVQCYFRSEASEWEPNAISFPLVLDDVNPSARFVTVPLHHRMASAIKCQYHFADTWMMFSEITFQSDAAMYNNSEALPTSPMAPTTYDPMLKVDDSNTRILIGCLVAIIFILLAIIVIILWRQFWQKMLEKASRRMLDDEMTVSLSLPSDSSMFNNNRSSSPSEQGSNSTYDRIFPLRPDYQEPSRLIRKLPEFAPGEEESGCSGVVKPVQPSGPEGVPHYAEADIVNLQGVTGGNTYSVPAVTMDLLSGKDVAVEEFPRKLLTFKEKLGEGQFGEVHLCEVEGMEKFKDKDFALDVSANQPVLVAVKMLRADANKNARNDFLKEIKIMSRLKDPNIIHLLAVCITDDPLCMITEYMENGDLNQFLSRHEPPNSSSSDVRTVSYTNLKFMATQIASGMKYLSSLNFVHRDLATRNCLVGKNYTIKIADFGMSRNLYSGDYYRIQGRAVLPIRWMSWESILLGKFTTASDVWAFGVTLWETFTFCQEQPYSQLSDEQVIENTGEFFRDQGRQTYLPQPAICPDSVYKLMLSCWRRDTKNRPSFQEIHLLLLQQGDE

[9] = molecular target: Glycogen synthase kinase-3 beta (Homo sapiens) (UniProt P49841)

Measured: % residual kinase activity

Sequence of Glycogen synthase kinase-3 beta (Homo sapiens) (P49841 whole entry, looked up): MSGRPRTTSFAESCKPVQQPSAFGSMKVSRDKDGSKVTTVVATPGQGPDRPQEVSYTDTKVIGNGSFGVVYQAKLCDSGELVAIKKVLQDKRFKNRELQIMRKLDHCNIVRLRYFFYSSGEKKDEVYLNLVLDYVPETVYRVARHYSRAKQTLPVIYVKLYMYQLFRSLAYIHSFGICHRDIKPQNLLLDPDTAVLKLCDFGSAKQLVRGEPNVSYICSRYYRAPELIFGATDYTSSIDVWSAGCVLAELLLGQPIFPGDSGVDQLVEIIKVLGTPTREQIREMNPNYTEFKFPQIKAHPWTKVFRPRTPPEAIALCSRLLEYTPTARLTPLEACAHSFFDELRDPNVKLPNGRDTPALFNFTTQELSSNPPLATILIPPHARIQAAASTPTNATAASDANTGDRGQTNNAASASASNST
Sequence of Tau-tubulin kinase 2 (Homo sapiens) (Q6IQ55 whole entry): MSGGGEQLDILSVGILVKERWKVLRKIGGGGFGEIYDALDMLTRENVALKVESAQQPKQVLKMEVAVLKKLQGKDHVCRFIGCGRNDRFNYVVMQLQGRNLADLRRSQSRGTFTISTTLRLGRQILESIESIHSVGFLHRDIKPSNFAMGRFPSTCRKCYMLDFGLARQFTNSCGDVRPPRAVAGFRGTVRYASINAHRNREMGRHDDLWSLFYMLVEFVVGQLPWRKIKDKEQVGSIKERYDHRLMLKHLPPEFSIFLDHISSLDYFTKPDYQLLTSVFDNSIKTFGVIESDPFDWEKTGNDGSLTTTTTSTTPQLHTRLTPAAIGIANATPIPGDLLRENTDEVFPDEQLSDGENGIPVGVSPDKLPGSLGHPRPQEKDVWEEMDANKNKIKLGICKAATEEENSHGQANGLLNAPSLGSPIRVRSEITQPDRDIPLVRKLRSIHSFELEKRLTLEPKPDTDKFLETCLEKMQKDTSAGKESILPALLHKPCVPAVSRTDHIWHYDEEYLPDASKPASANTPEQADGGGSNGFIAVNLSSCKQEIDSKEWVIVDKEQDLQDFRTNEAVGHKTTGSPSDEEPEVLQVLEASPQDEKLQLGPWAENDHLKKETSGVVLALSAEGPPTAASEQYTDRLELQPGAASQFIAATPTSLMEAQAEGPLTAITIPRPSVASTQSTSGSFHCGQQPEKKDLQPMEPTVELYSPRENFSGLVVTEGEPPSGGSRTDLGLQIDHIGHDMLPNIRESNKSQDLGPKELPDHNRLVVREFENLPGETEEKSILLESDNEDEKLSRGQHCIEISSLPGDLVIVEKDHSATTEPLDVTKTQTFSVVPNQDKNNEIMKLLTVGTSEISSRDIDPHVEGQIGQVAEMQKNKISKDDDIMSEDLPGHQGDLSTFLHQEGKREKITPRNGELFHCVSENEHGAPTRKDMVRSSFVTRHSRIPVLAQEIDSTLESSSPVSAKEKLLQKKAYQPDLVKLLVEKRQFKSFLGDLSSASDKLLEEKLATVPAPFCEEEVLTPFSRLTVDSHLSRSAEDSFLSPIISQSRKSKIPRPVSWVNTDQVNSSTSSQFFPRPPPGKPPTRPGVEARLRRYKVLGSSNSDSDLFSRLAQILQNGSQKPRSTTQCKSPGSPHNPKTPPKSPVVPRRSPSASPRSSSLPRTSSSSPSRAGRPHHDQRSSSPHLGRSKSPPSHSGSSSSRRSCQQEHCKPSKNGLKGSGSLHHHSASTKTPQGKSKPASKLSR
Sequence of Insulin receptor (Homo sapiens) (P06213 28-758 limits assumed): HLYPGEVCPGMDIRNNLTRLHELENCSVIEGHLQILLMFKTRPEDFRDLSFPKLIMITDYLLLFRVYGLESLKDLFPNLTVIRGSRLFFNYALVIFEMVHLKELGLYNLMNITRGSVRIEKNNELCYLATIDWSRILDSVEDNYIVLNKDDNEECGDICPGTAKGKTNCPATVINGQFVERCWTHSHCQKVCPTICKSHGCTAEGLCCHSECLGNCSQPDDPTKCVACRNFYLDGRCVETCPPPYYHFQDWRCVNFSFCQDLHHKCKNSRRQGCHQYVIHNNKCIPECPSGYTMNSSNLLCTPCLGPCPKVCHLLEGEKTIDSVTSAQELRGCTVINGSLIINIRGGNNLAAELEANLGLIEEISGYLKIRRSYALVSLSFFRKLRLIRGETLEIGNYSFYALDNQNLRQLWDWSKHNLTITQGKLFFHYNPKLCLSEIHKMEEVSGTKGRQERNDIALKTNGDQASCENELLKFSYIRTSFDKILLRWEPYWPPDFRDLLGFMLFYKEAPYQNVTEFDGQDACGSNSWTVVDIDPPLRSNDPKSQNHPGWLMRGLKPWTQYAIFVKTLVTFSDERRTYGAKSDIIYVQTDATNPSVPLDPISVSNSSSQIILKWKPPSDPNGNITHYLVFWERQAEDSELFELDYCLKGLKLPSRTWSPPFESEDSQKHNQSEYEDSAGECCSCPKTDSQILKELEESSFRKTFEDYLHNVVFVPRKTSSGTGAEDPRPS
Sequence of Insulin receptor (Homo sapiens) (P06213 763-1382 limits assumed): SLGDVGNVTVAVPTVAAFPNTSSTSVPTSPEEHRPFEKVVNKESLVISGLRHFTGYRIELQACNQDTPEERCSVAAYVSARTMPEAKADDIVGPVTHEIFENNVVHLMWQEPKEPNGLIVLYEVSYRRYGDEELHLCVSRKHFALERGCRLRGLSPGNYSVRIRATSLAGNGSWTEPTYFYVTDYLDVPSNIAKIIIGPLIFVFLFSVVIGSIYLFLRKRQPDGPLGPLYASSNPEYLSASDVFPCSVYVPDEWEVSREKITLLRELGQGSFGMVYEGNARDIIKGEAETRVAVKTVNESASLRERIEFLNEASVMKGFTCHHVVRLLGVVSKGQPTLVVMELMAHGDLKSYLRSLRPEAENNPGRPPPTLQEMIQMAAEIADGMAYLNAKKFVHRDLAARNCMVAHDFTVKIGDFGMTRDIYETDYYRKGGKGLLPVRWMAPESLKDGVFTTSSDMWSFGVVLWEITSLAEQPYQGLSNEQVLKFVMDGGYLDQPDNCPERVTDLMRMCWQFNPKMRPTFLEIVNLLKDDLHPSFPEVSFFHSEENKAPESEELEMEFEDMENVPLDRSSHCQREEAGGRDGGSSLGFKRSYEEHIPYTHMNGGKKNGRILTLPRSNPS
Sequence of Serine/threonine-protein kinase PLK2 (Homo sapiens) (Q9NYY3 whole entry, looked up): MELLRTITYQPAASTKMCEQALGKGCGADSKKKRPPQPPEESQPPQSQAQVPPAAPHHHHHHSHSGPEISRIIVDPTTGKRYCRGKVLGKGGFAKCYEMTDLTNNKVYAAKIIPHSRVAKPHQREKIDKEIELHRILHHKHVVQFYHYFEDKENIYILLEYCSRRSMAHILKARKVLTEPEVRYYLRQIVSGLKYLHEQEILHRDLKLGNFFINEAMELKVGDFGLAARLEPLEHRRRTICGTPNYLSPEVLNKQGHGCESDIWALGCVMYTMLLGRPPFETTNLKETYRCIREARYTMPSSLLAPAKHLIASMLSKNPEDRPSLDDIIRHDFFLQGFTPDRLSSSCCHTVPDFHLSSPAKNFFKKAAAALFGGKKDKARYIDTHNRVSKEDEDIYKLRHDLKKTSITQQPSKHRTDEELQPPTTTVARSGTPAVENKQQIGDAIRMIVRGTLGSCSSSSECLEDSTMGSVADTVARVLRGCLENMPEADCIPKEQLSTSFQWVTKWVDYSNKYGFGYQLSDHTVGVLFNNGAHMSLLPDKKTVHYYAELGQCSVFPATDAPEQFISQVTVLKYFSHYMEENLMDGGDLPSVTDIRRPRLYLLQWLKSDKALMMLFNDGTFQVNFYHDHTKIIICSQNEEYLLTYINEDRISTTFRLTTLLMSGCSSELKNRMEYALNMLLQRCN
Sequence of Epidermal growth factor receptor (Homo sapiens) (P00533 whole entry, the tested form may be a part): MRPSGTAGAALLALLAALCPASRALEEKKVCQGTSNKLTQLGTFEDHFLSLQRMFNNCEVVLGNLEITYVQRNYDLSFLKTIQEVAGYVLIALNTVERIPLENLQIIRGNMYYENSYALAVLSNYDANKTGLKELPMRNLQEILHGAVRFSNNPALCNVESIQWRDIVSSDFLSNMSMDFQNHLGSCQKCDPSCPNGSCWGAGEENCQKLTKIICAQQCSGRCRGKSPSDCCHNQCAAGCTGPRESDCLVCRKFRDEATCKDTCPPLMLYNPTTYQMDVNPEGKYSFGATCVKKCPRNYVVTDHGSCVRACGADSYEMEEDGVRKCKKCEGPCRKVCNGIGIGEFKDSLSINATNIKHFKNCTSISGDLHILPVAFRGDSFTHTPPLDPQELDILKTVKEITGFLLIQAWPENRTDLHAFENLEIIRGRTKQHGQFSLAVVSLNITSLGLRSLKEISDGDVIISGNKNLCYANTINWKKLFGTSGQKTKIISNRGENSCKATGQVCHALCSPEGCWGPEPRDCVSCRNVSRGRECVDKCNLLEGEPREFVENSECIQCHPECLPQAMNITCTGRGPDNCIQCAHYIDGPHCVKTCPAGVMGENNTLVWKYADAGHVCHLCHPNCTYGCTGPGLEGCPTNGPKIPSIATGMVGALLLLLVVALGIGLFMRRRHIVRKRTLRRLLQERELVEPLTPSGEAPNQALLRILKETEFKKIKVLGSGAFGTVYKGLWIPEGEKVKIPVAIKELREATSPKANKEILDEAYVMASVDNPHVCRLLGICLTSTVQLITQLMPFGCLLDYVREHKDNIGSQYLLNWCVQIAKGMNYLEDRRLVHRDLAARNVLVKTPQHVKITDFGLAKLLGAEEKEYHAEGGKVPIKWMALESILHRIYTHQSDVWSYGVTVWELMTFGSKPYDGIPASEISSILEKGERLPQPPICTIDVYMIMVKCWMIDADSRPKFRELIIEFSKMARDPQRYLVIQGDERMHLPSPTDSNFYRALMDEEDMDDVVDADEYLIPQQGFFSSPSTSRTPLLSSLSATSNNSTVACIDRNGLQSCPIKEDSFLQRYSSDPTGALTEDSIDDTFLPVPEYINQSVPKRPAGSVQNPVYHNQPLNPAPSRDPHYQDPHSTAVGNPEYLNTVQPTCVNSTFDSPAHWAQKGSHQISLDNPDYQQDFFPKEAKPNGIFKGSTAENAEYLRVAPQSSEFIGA

CN1CCN(c2cnc3c(C4CCN(C(=O)c5ccc(OC(F)(F)F)cc5N)CC4)ncnc3c2)CC1 [BAY-885]
inactive: [1] 99% | [2] 93% | [3] 119% | [4] 98% | [5] 85% | [6] 116% | [7] 105% | [8] 104% | [9] 99%
